# Patent US20220117938A1, “COMBINATON THERAPY WITH A DON PRODRUG AND AN IMMUNE CHECKPOINT INHIBITOR” (DRACEN PHARMACEUTICALS, INC., priority 2019, published 2022)
# System: MC38 tumors
# Assay: Anti-tumor efficacy of Compound 1 and Compound 3 by IV and SC routes in the MC38 model (Example 9)
# Assay type: in vivo, mice
# Procedure: Female C57BL/6 mice were inoculated subcutaneously in the right flank with MC38 cells for tumor development. Six days after tumor inoculation, mice with tumor sizes ranging from 52-97 mm^3 (average tumor size 71 mm^3) were selected and assigned into 10 groups using stratified randomization with 8 mice per group based upon their tumor volumes. The treatments were started from the day of randomization (defined as D0), Group 1 was treated with Vehicle control, SC qd×5 days on (Mon-Fri)×4 cycles; Group 2 was treated with Compound 1, 1.4 mpk SC, qd×5 days on (Mon-Fri)×4 cycles; Group 3 was treated with Compound 1, 7 mpk IV, biw (Mon, Thu)×4 cycles; Group 4 was treated with Compound 1, 14 mpk IV, biw (Mon, Thu)×4 cycles; Group 5 was treated with Compound 1, 14 mpk IV, qw (Mon)×4 cycles; Group 6 was treated with Compound 1, 21 mpk IV, qw (Mon)×4 cycles; Group 7 was treated with Compound 3, 1 mpk SC, qd 5 days on (Mon-Fri)×4 cycles; Group 8 was treated with Compound 3, 3 mpk SC, qd 5 days on (Mon-Fri)×4 cycles; Group 9 was treated with Compound 3, 9 mpk SC, qd 5 days on (Mon-Fri)×4 cycles; and Group 10 was treated with Compound 3, 7 mpk IV, tiw (Mon, Wed, Fri)×4 cycles. The tumor sizes were measured three times per week during the treatment. Survival was monitored with tumor volume exceeding 2000 mm^3 as endpoint. The entire study was terminated on D44 after start of the treatment. All treatments were well-tolerated without any adverse effects or significant body weight loss.
# [1] = Group 2, 1.4 mpk SC qd Mon-Fri x4 cycles
# [2] = Group 2, 1.4 mpk SC qd Mon-Fri x4 cycles, day 11
# [3] = Group 3, 7 mpk IV biw x4 cycles
# [4] = Group 3, 7 mpk IV biw x4 cycles, day 11
# [5] = Group 4, 14 mpk IV biw x4 cycles
# [6] = Group 4, 14 mpk IV biw x4 cycles, day 11
# [7] = Group 5, 14 mpk IV qw x4 cycles
# [8] = Group 5, 14 mpk IV qw x4 cycles, day 11
# [9] = Group 6, 21 mpk IV qw x4 cycles
# [10] = Group 6, 21 mpk IV qw x4 cycles, day 11
structure (smiles),measurement,setting,value
"CC(=O)N[C@@H](Cc1c[nH]c2ccccc12)C(=O)N[C@@H](CCC(=O)C=[N+]=[N-])C(=O)OC(C)C [Compound 1, Isopropyl (S)-2-((S)-2-acetamido-3-(1H-indol-3-yl)propanamido)-6-diazo-5-oxohexanoate]",ILS,[1],170.0%
same,MST,[1],40.5 days
same,RTV at day 11,[1],0.63 ± 0.11
same,Tumor Size at day 11,[1],43 ± 6 mm^3
same,Tumor volume,"Group 2, 1.4 mpk SC qd Mon-Fri x4 cycles, day 0",71 ± 5 mm^3
same,Tumor volume,"Group 2, 1.4 mpk SC qd Mon-Fri x4 cycles, day 2",64 ± 5 mm^3
same,Tumor volume,"Group 2, 1.4 mpk SC qd Mon-Fri x4 cycles, day 4",68 ± 10 mm^3
same,Tumor volume,"Group 2, 1.4 mpk SC qd Mon-Fri x4 cycles, day 7",61 ± 5 mm^3
same,Tumor volume,"Group 2, 1.4 mpk SC qd Mon-Fri x4 cycles, day 9",39 ± 3 mm^3
same,T/C,[2],3.86%
same,TGI,[2],102.69%
same,Tumor volume,[2],43 ± 6 mm^3
same,Tumor volume,"Group 2, 1.4 mpk SC qd Mon-Fri x4 cycles, day 14",51 ± 9 mm^3
same,Tumor volume,"Group 2, 1.4 mpk SC qd Mon-Fri x4 cycles, day 16",50 ± 7 mm^3
same,Tumor volume,"Group 2, 1.4 mpk SC qd Mon-Fri x4 cycles, day 18",52 ± 9 mm^3
same,Tumor volume,"Group 2, 1.4 mpk SC qd Mon-Fri x4 cycles, day 21",44 ± 7 mm^3
same,Tumor volume,"Group 2, 1.4 mpk SC qd Mon-Fri x4 cycles, day 23",41 ± 9 mm^3
same,Tumor volume,"Group 2, 1.4 mpk SC qd Mon-Fri x4 cycles, day 25",42 ± 11 mm^3
same,Tumor volume,"Group 2, 1.4 mpk SC qd Mon-Fri x4 cycles, day 28",55 ± 14 mm^3
same,Tumor volume,"Group 2, 1.4 mpk SC qd Mon-Fri x4 cycles, day 30",140 ± 50 mm^3
same,Tumor volume,"Group 2, 1.4 mpk SC qd Mon-Fri x4 cycles, day 32",303 ± 119 mm^3
same,Tumor volume,"Group 2, 1.4 mpk SC qd Mon-Fri x4 cycles, day 35",509 ± 166 mm^3
same,Tumor volume,"Group 2, 1.4 mpk SC qd Mon-Fri x4 cycles, day 37",896 ± 217 mm^3
same,ILS,[3],123.3%
same,MST,[3],33.5 days
same,RTV at day 11,[3],1.44 ± 0.20
same,Tumor Size at day 11,[3],99 ± 11 mm^3
same,Tumor volume,"Group 3, 7 mpk IV biw x4 cycles, day 0",71 ± 4 mm^3
same,Tumor volume,"Group 3, 7 mpk IV biw x4 cycles, day 2",61 ± 9 mm^3
same,Tumor volume,"Group 3, 7 mpk IV biw x4 cycles, day 4",64 ± 7 mm^3
same,Tumor volume,"Group 3, 7 mpk IV biw x4 cycles, day 7",98 ± 8 mm^3
same,Tumor volume,"Group 3, 7 mpk IV biw x4 cycles, day 9",79 ± 7 mm^3
same,T/C,[4],8.87%
same,TGI,[4],97.42%
same,Tumor volume,[4],99 ± 11 mm^3
same,Tumor volume,"Group 3, 7 mpk IV biw x4 cycles, day 14",140 ± 16 mm^3
same,Tumor volume,"Group 3, 7 mpk IV biw x4 cycles, day 16",134 ± 10 mm^3
same,Tumor volume,"Group 3, 7 mpk IV biw x4 cycles, day 18",133 ± 15 mm^3
same,Tumor volume,"Group 3, 7 mpk IV biw x4 cycles, day 21",236 ± 36 mm^3
same,Tumor volume,"Group 3, 7 mpk IV biw x4 cycles, day 23",317 ± 59 mm^3
same,Tumor volume,"Group 3, 7 mpk IV biw x4 cycles, day 25",337 ± 56 mm^3
same,Tumor volume,"Group 3, 7 mpk IV biw x4 cycles, day 28",602 ± 144 mm^3
same,Tumor volume,"Group 3, 7 mpk IV biw x4 cycles, day 30",1181 ± 278 mm^3
same,ILS,[5],133.3%
same,MST,[5],35 days
same,RTV at day 11,[5],1.06 ± 0.22
same,Tumor Size at day 11,[5],69 ± 11 mm^3
same,Tumor volume,"Group 4, 14 mpk IV biw x4 cycles, day 0",72 ± 6 mm^3
same,Tumor volume,"Group 4, 14 mpk IV biw x4 cycles, day 2",80 ± 12 mm^3
same,Tumor volume,"Group 4, 14 mpk IV biw x4 cycles, day 4",70 ± 8 mm^3
same,Tumor volume,"Group 4, 14 mpk IV biw x4 cycles, day 7",86 ± 13 mm^3
same,Tumor volume,"Group 4, 14 mpk IV biw x4 cycles, day 9",70 ± 11 mm^3
same,T/C,[6],6.51%
same,TGI,[6],100.28%
same,Tumor volume,[6],69 ± 11 mm^3
same,Tumor volume,"Group 4, 14 mpk IV biw x4 cycles, day 14",95 ± 14 mm^3
same,Tumor volume,"Group 4, 14 mpk IV biw x4 cycles, day 16",107 ± 25 mm^3
same,Tumor volume,"Group 4, 14 mpk IV biw x4 cycles, day 18",96 ± 22 mm^3
same,Tumor volume,"Group 4, 14 mpk IV biw x4 cycles, day 21",144 ± 45 mm^3
same,Tumor volume,"Group 4, 14 mpk IV biw x4 cycles, day 23",163 ± 41 mm^3
same,Tumor volume,"Group 4, 14 mpk IV biw x4 cycles, day 25",167 ± 47 mm^3
same,Tumor volume,"Group 4, 14 mpk IV biw x4 cycles, day 28",261 ± 54 mm^3
same,Tumor volume,"Group 4, 14 mpk IV biw x4 cycles, day 30",562 ± 124 mm^3
same,Tumor volume,"Group 4, 14 mpk IV biw x4 cycles, day 32",967 ± 171 mm^3
same,Tumor volume,"Group 4, 14 mpk IV biw x4 cycles, day 35",1884 ± 337 mm^3
same,ILS,[7],86.7%
same,MST,[7],28 days
same,RTV at day 11,[7],2.06 ± 0.40
same,Tumor Size at day 11,[7],134 ± 21 mm^3
same,Tumor volume,"Group 5, 14 mpk IV qw x4 cycles, day 0",70 ± 4 mm^3
same,Tumor volume,"Group 5, 14 mpk IV qw x4 cycles, day 2",67 ± 5 mm^3
same,Tumor volume,"Group 5, 14 mpk IV qw x4 cycles, day 4",77 ± 12 mm^3
same,Tumor volume,"Group 5, 14 mpk IV qw x4 cycles, day 7",152 ± 20 mm^3
same,Tumor volume,"Group 5, 14 mpk IV qw x4 cycles, day 9",105 ± 12 mm^3
same,T/C,[8],12.69%
same,TGI,[8],93.98%
same,Tumor volume,[8],134 ± 21 mm^3
same,Tumor volume,"Group 5, 14 mpk IV qw x4 cycles, day 14",312 ± 56 mm^3
same,ILS,[9],60.0%
same,MST,[9],24 days
same,RTV at day 11,[9],2.86 ± 0.39
same,Tumor Size at day 11,[9],206 ± 33 mm^3
same,Tumor volume,"Group 6, 21 mpk IV qw x4 cycles, day 0",71 ± 4 mm^3
same,Tumor volume,"Group 6, 21 mpk IV qw x4 cycles, day 2",79 ± 10 mm^3
same,Tumor volume,"Group 6, 21 mpk IV qw x4 cycles, day 4",80 ± 9 mm^3
same,Tumor volume,"Group 6, 21 mpk IV qw x4 cycles, day 7",182 ± 24 mm^3
same,Tumor volume,"Group 6, 21 mpk IV qw x4 cycles, day 9",164 ± 21 mm^3
same,T/C,[10],17.57%
same,TGI,[10],87.26%
same,Tumor volume,[10],206 ± 33 mm^3
same,Tumor volume,"Group 6, 21 mpk IV qw x4 cycles, day 14",440 ± 87 mm^3
same,Tumor volume,"Group 6, 21 mpk IV qw x4 cycles, day 16",515 ± 84 mm^3
same,Tumor volume,"Group 6, 21 mpk IV qw x4 cycles, day 18",740 ± 120 mm^3
same,Tumor volume,"Group 6, 21 mpk IV qw x4 cycles, day 21",1005 ± 174 mm^3
same,Tumor volume,"Group 6, 21 mpk IV qw x4 cycles, day 23",1683 ± 302 mm^3
